Measurements from the CheMixHub ionic liquid set.

Experiment: xn = mol fraction of the nth substance listed
Conditions: 101 kPa

CCCCCCCCCCCCCCCC[n+]1ccccc1.O=C([O-])c1ccccc1O + NCC(=O)NCC(=O)O + O
electrical conductivity [S/m]
Conditions	293.15 K	298.15 K	303.15 K	308.15 K	313.15 K
x2 = 0.0009002, x1 = 3.6e-07	0.0016	0.0019	0.00224	0.00265	0.00314
x2 = 0.0009002, x1 = 7.2e-07	0.00178	0.0021	0.00248	0.0029	0.00341
x2 = 0.0009002, x1 = 1.09e-06	0.00197	0.00232	0.00272	0.00318	0.00371
x2 = 0.0009002, x1 = 1.27e-06	0.00204	0.00241	0.00282	0.00329	0.00384
x2 = 0.0009002, x1 = 1.63e-06	0.00215	0.00253	0.00296	0.00345	0.00402
x2 = 0.0009002, x1 = 1.99e-06	0.00228	0.00269	0.00318	0.00366	0.00426
x2 = 0.0009002, x1 = 2.36e-06	0.00242	0.00285	0.00336	0.00389	0.00452
x2 = 0.0009002, x1 = 2.72e-06	0.00254	0.00298	0.0035	–	0.00473
x2 = 0.0009002, x1 = 3.08e-06	0.00261	0.00307	0.0036	0.00419	0.00487
x2 = 0.0009002, x1 = 3.44e-06	0.00272	0.00319	0.00373	0.00434	0.00504
x2 = 0.0009002, x1 = 3.81e-06	0.00285	0.00334	0.00389	0.00452	0.00524
x2 = 0.0009002, x1 = 4.35e-06	0.00298	0.00348	0.00404	0.00468	0.00543
x2 = 0.0009002, x1 = 4.71e-06	0.00311	0.00362	0.00422	0.00487	0.00562
x2 = 0.0009002, x1 = 5.26e-06	0.00322	0.00374	0.00435	0.00501	0.00579
x2 = 0.0009002, x1 = 5.62e-06	0.00334	–	0.0045	0.00518	0.00595
x2 = 0.001799, x1 = 1.8e-07	0.00253	0.00303	0.00363	0.00434	0.00519
x2 = 0.001799, x1 = 3.6e-07	0.0026	0.00311	0.00371	0.00444	0.00529
x2 = 0.001799, x1 = 5.5e-07	0.00269	0.00321	0.00382	0.00456	–
x2 = 0.001799, x1 = 7.3e-07	0.00282	0.00336	0.00389	0.00475	0.00563
x2 = 0.001799, x1 = 9.1e-07	0.00291	0.00345	0.0041	0.00487	0.00576
x2 = 0.001799, x1 = 1.28e-06	0.00301	0.00357	0.00422	0.00501	0.00592
x2 = 0.001799, x1 = 1.46e-06	0.00313	0.0037	0.00438	0.00519	0.00613
x2 = 0.001799, x1 = 1.82e-06	0.00325	0.00384	0.00454	0.00537	0.00632
x2 = 0.001799, x1 = 2.19e-06	0.00335	0.00397	0.00469	0.00555	0.00653
x2 = 0.001799, x1 = 2.55e-06	0.00347	0.0041	0.00484	0.00572	0.00673
x2 = 0.001799, x1 = 2.92e-06	0.00355	0.00419	0.00495	0.00584	0.00688
x2 = 0.001799, x1 = 3.1e-06	–	–	–	–	0.00701
x2 = 0.001799, x1 = 3.46e-06	0.00371	0.00437	0.00515	0.00607	0.00715
x2 = 0.001799, x1 = 3.83e-06	0.00379	0.00447	0.00526	0.00619	0.00728
x2 = 0.001799, x1 = 4.01e-06	–	–	–	–	0.00738
